From patent US7989469B2, “Certain chemical entities, compositions, and methods” (Cytokinetics, Incorporated, priority 2008, dated 2011)

These molecules were tested on rabbit skeletal muscle myofibril preparations (approximately 90% fast fibers) (assay: Activation of fast skeletal muscle fibers: enzymatic activity of myofibril preparations (PUMA assay system)). Details: detergent treated myofibrils at pCa25%, 500 μM ATP; cells marked †: Mean value.
Format: biochemical
Parameters: unit not given here
Source text: Fast fiber activators were identified by measuring the enzymatic activity of muscle myofibril preparations using the proprietary PUMA™ (see, e.g., U.S. Pat. Nos. 6,410,254, 6,743,599, 7,202,051, and 7,378,254) assay system. Myofibril preparations consisted of rabbit skeletal muscle (approximately 90% fast fibers) that had been treated with a detergen (triton X-100) to remove cellular membranes and then homogenized. This preparation retained all of the sarcomeric components in a native conformation and the enzymatic activity was still regulated by calcium. Compounds were tested using a myofibril suspension and a level of calcium sufficient to increase enzymatic activity of the myofibrils to 25% of their maximal rate (termed pCa25%). Enzymatic activity was tracked via a kinetic assay with a UV absorption readout. Hits were identified as compounds that increased the rate of enzymatic activity by greater than 40% at 40 μM. Myofibril preparations are calcium regulated and were screened at a level of calcium sufficient to produce a 25% increase in enzymatic rate. Detergent treated myofibrils were incubated with 500 μM ATP and 40 μM compound and a kinetic read of UV absorbance performed. Data was normalized to control wells.
In the case of `CC[C@H](n1c(O)nc2ncc(Cl)c(-c3ccc(F)cc3)c21)C(C)(C)O` [1-((1S)-1-ethyl-2-hydroxy-2-methylpropyl)-6-chloro-7-(4-fluorophenyl)imidazo[4,5-b]pyridin-2-ol], the “AC1.4 Median” value is reported as 0.320†. With `CC[C@@H](CO)n1c(O)nc2ncc(Cl)c(-c3ccc(Cl)cc3)c21` [1-((1S)-1-ethyl-2-hydroxyethyl)-6-chloro-7-(4-chlorophenyl)imidazo[4,5-b]pyridin-2-ol] the “AC1.4 Median” value was 0.261†. For `CC[C@@H](CO)n1c(O)nc2ncc(Cl)c(-c3ccc(Cl)s3)c21` [1-((1S)-1-ethyl-2-hydroxyethyl)-6-chloro-7-(5-chloro(2-thienyl))imidazo[4,5-b]pyridin-2-ol], the “AC1.4 Median” value was 0.178†. With `CC[C@@H](CCO)n1c(O)nc2ncc(Cl)c(-c3ccc(F)cc3)c21` [1-((1S)-1-ethyl-3-hydroxypropyl)-6-chloro-7-(4-fluorophenyl)imidazo[4,5-b]pyridin-2-ol] the “AC1.4 Median” value was 0.475†. For `CC(C)(C)n1c(O)nc2ncc(Cl)c(-c3ccc(F)cc3)c21` [1-(tert-butyl)-6-chloro-7-(4-fluorophenyl)imidazo[4,5-b]pyridin-2-ol], the “AC1.4 Median” value was 0.199†.

Same assay, conditions: detergent treated myofibrils at pCa25%, 500 μM ATP; median value (no †)
With `CC[C@@H](n1c(O)nc2ncc(Cl)c(-c3ccc(F)cc3)c21)C(C)(C)O` [1-((1R)-1-ethyl-2-hydroxy-2-methylpropyl)-6-chloro-7-(4-fluorophenyl)imidazo[4,5-b]pyridin-2-ol] the “AC1.4 Median” value was 0.537. `CC[C@@H](n1c(O)nc2ncc(Cl)c(-c3ccc(F)cn3)c21)C(C)(C)O` [1-((1R)-1-ethyl-2-hydroxy-2-methylpropyl)-6-chloro-7-(5-fluoro(2-pyridyl))imidazo[4,5-b]pyridin-2-ol] was tested, and the “AC1.4 Median” value was 8.386. `CC[C@H](CO)n1c(O)nc2ncc(Cl)c(-c3ccc(F)cc3)c21` [1-((1R)-1-ethyl-2-hydroxyethyl)-6-chloro-7-(4-fluorophenyl)imidazo[4,5-b]pyridin-2-ol] was tested, and the “AC1.4 Median” value was 2.367. `CC[C@H](CO)n1c(O)nc2ncc(Cl)c(-c3ccc(F)cn3)c21` [1-((1R)-1-ethyl-2-hydroxyethyl)-6-chloro-7-(5-fluoro(2-pyridyl))imidazo[4,5-b]pyridin-2-ol] was tested, and the “AC1.4 Median” value was 7.658. With `CC[C@H](CO)n1c(O)nc2ncc(Cl)c(-c3ccc(F)c(F)c3)c21` [1-((1R)-1-ethyl-2-hydroxyethyl)-7-(3,4-difluorophenyl)-6-chloroimidazo[4,5-b]pyridin-2-ol] the “AC1.4 Median” value was 4.034. For `CC[C@H](CC(C)(C)O)n1c(O)nc2ncc(Cl)c(-c3ccc(F)cc3)c21` [1-((1R)-1-ethyl-3-hydroxy-3-methylbutyl)-6-chloro-7-(4-fluorophenyl)imidazo[4,5-b]pyridin-2-ol], the “AC1.4 Median” value was 2.9192. `CC[C@H](CCO)n1c(O)nc2ncc(Cl)c(-c3ccc(F)cc3)c21` [1-((1R)-1-ethyl-3-hydroxypropyl)-6-chloro-7-(4-fluorophenyl)imidazo[4,5-b]pyridin-2-ol] was tested, and the “AC1.4 Median” value was 2.547. For `CC[C@@H](C)n1c(O)nc2nccc(-n3cccn3)c21` [1-((1R)-1-methylpropyl)-7-pyrazolylimidazo[4,5-b]pyridin-2-ol], the “AC1.4 Median” value was 18.6973. `CC[C@H](CN)n1c(O)nc2ncc(Cl)c(-c3ccc(F)cc3)c21` [1-((1R)-2-amino-1-ethylethyl)-6-chloro-7-(4-fluorophenyl)imidazo[4,5-b]pyridin-2-ol] was tested, and the “AC1.4 Median” value was 46.969. With `C[C@H](CO)n1c(O)nc2ncc(Cl)c(-c3ccc(F)cc3)c21` [1-((1R)-2-hydroxy-isopropyl)-6-chloro-7-(4-fluorophenyl)imidazo[4,5-b]pyridin-2-ol] the “AC1.4 Median” value was 11.044. With `CC[C@H](n1c(O)nc2ncc(Cl)c(-c3ccc(F)cn3)c21)C(C)(C)O` [1-((1S)-1-ethyl-2-hydroxy-2-methylpropyl)-6-chloro-7-(5-fluoro(2-pyridyl))imidazo[4,5-b]pyridin-2-ol] the “AC1.4 Median” value was 6.420. For `CC[C@@H](CO)n1c(O)nc2ncc(-c3ccc(F)cc3)c(-c3ccc(F)cc3)c21` [1-((1S)-1-ethyl-2-hydroxyethyl)-6,7-bis(4-fluorophenyl)imidazo[4,5-b]pyridin-2-ol], the “AC1.4 Median” value was 17.720. `CC[C@@H](CO)n1c(O)nc2ncc(Cl)c(-c3cccs3)c21` [1-((1S)-1-ethyl-2-hydroxyethyl)-6-chloro-7-(2-thienyl)imidazo[4,5-b]pyridin-2-ol] was tested, and the “AC1.4 Median” value was 1.349. `CC[C@@H](CO)n1c(O)nc2ncc(Cl)c(-c3ccsc3)c21` [1-((1S)-1-ethyl-2-hydroxyethyl)-6-chloro-7-(3-thienyl)imidazo[4,5-b]pyridin-2-ol] was tested, and the “AC1.4 Median” value was 0.827. `CC[C@@H](CO)n1c(O)nc2ncc(Cl)c(-c3ccc(Cl)cc3)c21` [1-((1S)-1-ethyl-2-hydroxyethyl)-6-chloro-7-(4-chlorophenyl)imidazo[4,5-b]pyridin-2-ol] was tested, and the “AC1.4 Median” value was 2.059. With `CC[C@@H](CO)n1c(O)nc2ncc(Cl)c(-c3ccc(OC)cc3)c21` [1-((1S)-1-ethyl-2-hydroxyethyl)-6-chloro-7-(4-methoxyphenyl)imidazo[4,5-b]pyridin-2-ol] the “AC1.4 Median” value was 5.251. In the case of `CC[C@@H](CO)n1c(O)nc2ncc(Cl)c(-c3ccc(C)cc3)c21` [1-((1S)-1-ethyl-2-hydroxyethyl)-6-chloro-7-(4-methylphenyl)imidazo[4,5-b]pyridin-2-ol], the “AC1.4 Median” value is reported as 2.194. For `CC[C@@H](CO)n1c(O)nc2ncc(Cl)c(-c3ccc(Cl)cn3)c21` [1-((1S)-1-ethyl-2-hydroxyethyl)-6-chloro-7-(5-chloro(2-pyridyl))imidazo[4,5-b]pyridin-2-ol], the “AC1.4 Median” value was 9.592. With `CC[C@@H](CO)n1c(O)nc2ncc(Cl)c(-c3ccc(F)cn3)c21` [1-((1S)-1-ethyl-2-hydroxyethyl)-6-chloro-7-(5-fluoro(2-pyridyl))imidazo[4,5-b]pyridin-2-ol] the “AC1.4 Median” value was 7.549. With `CC[C@@H](CO)n1c(O)nc2ncc(Cl)c(-c3ccccc3)c21` [1-((1S)-1-ethyl-2-hydroxyethyl)-6-chloro-7-phenylimidazo[4,5-b]pyridin-2-ol] the “AC1.4 Median” value was 1.474. For `CC[C@@H](CO)n1c(O)nc2ncc(Cl)c(-c3cnccn3)c21` [1-((1S)-1-ethyl-2-hydroxyethyl)-6-chloro-7-pyrazin-2-ylimidazo[4,5-b]pyridin-2-ol], the “AC1.4 Median” value was 40.701. With `CC[C@@H](CO)n1c(O)nc2ncc(Cl)c(-n3cccn3)c21` [1-((1S)-1-ethyl-2-hydroxyethyl)-6-chloro-7-pyrazolylimidazo[4,5-b]pyridin-2-ol] the “AC1.4 Median” value was 7.2481. With `CC[C@@H](CO)n1c(O)nc2ncc(F)c(-c3ccc(F)cc3)c21` [1-((1S)-1-ethyl-2-hydroxyethyl)-6-fluoro-7-(4-fluorophenyl)imidazo[4,5-b]pyridin-2-ol] the “AC1.4 Median” value was 4.204. In the case of `CC[C@@H](CO)n1c(O)nc2ncc(Cl)c(-c3ccc(F)c(F)c3)c21` [1-((1S)-1-ethyl-2-hydroxyethyl)-7-(3,4-difluorophenyl)-6-chloroimidazo[4,5-b]pyridin-2-ol], the “AC1.4 Median” value is reported as 0.707. `CC[C@@H](CO)n1c(O)nc2ncc(F)c(-c3ccc(Cl)cc3)c21` [1-((1S)-1-ethyl-2-hydroxyethyl)-7-(4-chlorophenyl)-6-fluoroimidazo[4,5-b]pyridin-2-ol] was tested, and the “AC1.4 Median” value was 2.643. For `CC[C@@H](CC(C)(C)O)n1c(O)nc2ncc(Cl)c(-c3ccc(F)cc3)c21` [1-((1S)-1-ethyl-3-hydroxy-3-methylbutyl)-6-chloro-7-(4-fluorophenyl)imidazo[4,5-b]pyridin-2-ol], the “AC1.4 Median” value was 1.0092. For `CC[C@H](C)n1c(O)nc2ncc(Cl)c(-n3cccn3)c21` [1-((1S)-1-methylpropyl)-6-chloro-7-pyrazolylimidazo[4,5-b]pyridin-2-ol], the “AC1.4 Median” value was 1.0174. In the case of `CC[C@H](C)n1c(O)nc2ncc(Cl)cc21` [1-((1S)-1-methylpropyl)-6-chloroimidazo[4,5-b]pyridin-2-ol], the “AC1.4 Median” value is reported as 1.7291. With `CC[C@@H](CN)n1c(O)nc2ncc(Cl)c(-c3ccc(F)cc3)c21` [1-((1S)-2-amino-1-ethylethyl)-6-chloro-7-(4-fluorophenyl)imidazo[4,5-b]pyridin-2-ol] the “AC1.4 Median” value was 24.3174. In the case of `C[C@@H](CO)n1c(O)nc2ncc(Cl)c(-c3ccc(Cl)cc3)c21` [1-((1S)-2-hydroxy-isopropyl)-6-chloro-7-(4-chlorophenyl)imidazo[4,5-b]pyridin-2-ol], the “AC1.4 Median” value is reported as 1.260. With `C[C@@H](CO)n1c(O)nc2ncc(Cl)c(-c3ccc(F)cc3)c21` [1-((1S)-2-hydroxy-isopropyl)-6-chloro-7-(4-fluorophenyl)imidazo[4,5-b]pyridin-2-ol] the “AC1.4 Median” value was 2.016. In the case of `C[C@@H](CCO)n1c(O)nc2ncc(Cl)c(-c3ccc(F)cc3)c21` [1-((1S)-3-hydroxy-1-methylpropyl)-6-chloro-7-(4-fluorophenyl)imidazo[4,5-b]pyridin-2-ol], the “AC1.4 Median” value is reported as 2.309. In the case of `CCC(CC)n1c(O)nc2ncc(Cl)c(-c3cccc(S(C)(=O)=O)c3)c21` [1-[6-chloro-1-(ethylpropyl)-2-hydroxyimidazo[4,5-b]pyridin-7-yl]-3-(methylsulfonyl)benzene], the “AC1.4 Median” value is reported as 38.633. In the case of `CCC(CC)n1c(O)nc2ncc(Cl)c(-c3ccc(S(C)(=O)=O)cc3)c21` [1-[6-chloro-1-(ethylpropyl)-2-hydroxyimidazo[4,5-b]pyridin-7-yl]-4-(methylsulfonyl)benzene], the “AC1.4 Median” value is reported as 45.324. In the case of `CC[C@H](COC)n1c(O)nc2ncc(Cl)c(-c3ccc(F)cc3)c21` [1-[(1R)-1-(methoxymethyl)propyl]-6-chloro-7-(4-fluorophenyl)imidazo[4,5-b]pyridin-2-ol], the “AC1.4 Median” value is reported as 0.249. In the case of `CC[C@H](COC)n1c(O)nc2ncc(Cl)c(-c3ccc(F)cn3)c21` [1-[(1R)-1-(methoxymethyl)propyl]-6-chloro-7-(5-fluoro(2-pyridyl))imidazo[4,5-b]pyridin-2-ol], the “AC1.4 Median” value is reported as 1.142.
